Assay results published in patent publication US7854753B2, “Photokinetic delivery of biologically active substances using pulsed incoherent light” (Photokinetix, Inc., priority 2002, dated 2010).

Assay: Franz skin diffusion cell permeation (percutaneous absorption) under ambient, natural or pulsed incoherent LED light
Settings: for Permeation Dark: ambient light absent; for 405/1.7 / 405/9.7 / 405/24: Table 10; for 405/1.7: 1.7 cps; for 405/9.7: 9.7 cps; for 405/24: 24 cps; for Ctrl: Table 10 peptides, ambient light only; for Permeation Ctrl: ambient cool fluorescent light only, 260-750 nm, 120 cps; for Permeation Ctrl-TiO2: ambient fluorescent light, sample with 2% (w/w) rutile TiO2

Question: For `CC(C)C[C@H](NC(=O)[C@H](Cc1ccccc1)NC(=O)CNC(=O)CNC(=O)[C@@H](N)Cc1ccc(O)cc1)C(=O)O` [Compound 14, Leucine Enkephalin (Tyr-Gly-Gly-Phe-Leu)], which “% Permeation (percent increase or decrease vs dark baseline, equation 1)” value (350 + TiO2, 24 cps vs Dark-TiO2) is on record?
Answer: 8.58%

Question: And the “% Permeation (percent increase or decrease vs dark baseline, equation 1)” value (350 + TiO2, 80 cps vs Dark-TiO2)?
Answer: 39.43%

Question: And the Permeation (350 + TiO2, pulse rate 24 cps)?
Answer: 73.17 μg/cm^2/24 hrs

Question: What about the Permeation (350 + TiO2, pulse rate 80 cps) of the same molecule?
Answer: 28.50 μg/cm^2/24 hrs

Question: And the Permeation (350 nm LED, pulse rate 24 cps)?
Answer: 84.44 μg/cm^2/24 hrs

Question: And the Permeation (350 nm LED, pulse rate 80 cps)?
Answer: 31.30 μg/cm^2/24 hrs

Question: And the “% Permeation (percent increase or decrease vs dark baseline, equation 1)” value (350 nm, 24 cps vs Dark)?
Answer: −21.59%

Question: What about the “% Permeation (percent increase or decrease vs dark baseline, equation 1)” value (350 nm, 80 cps vs Dark) of the same molecule?
Answer: 72.36%

Question: What about the “% Permeation (percent increase or decrease vs dark baseline, equation 1)” value (390 + TiO2, 24 cps vs Dark-TiO2) of the same molecule?
Answer: 54.21%

Question: What about the “% Permeation (percent increase or decrease vs dark baseline, equation 1)” value (390 + TiO2, 80 cps vs Dark-TiO2) of the same molecule?
Answer: 55.14%

Question: And the Permeation (390 + TiO2, pulse rate 24 cps)?
Answer: 103.92 μg/cm^2/24 hrs

Question: What about the Permeation (390 + TiO2, pulse rate 80 cps) of the same molecule?
Answer: 31.71 μg/cm^2/24 hrs

Question: What about the Permeation (390 nm LED, pulse rate 24 cps) of the same molecule?
Answer: 108.49 μg/cm^2/24 hrs

Question: What about the Permeation (390 nm LED, pulse rate 80 cps) of the same molecule?
Answer: 31.32 μg/cm^2/24 hrs

Question: What about the “% Permeation (percent increase or decrease vs dark baseline, equation 1)” value (390 nm, 24 cps vs Dark) of the same molecule?
Answer: 0.74%

Question: And the “% Permeation (percent increase or decrease vs dark baseline, equation 1)” value (390 nm, 80 cps vs Dark)?
Answer: 72.47%

Question: What about the “% Permeation (percent increase or decrease vs dark baseline, equation 1)” value (405 + TiO2, 24 cps vs Dark-TiO2) of the same molecule?
Answer: 322.29%

Question: What about the “% Permeation (percent increase or decrease vs dark baseline, equation 1)” value (405 + TiO2, 80 cps vs Dark-TiO2) of the same molecule?
Answer: −35.47%

Question: And the Permeation (405 + TiO2, pulse rate 24 cps)?
Answer: 284.58 μg/cm^2/24 hrs

Question: And the Permeation (405 + TiO2, pulse rate 80 cps)?
Answer: 13.19 μg/cm^2/24 hrs

Question: What about the Permeation (405 nm LED, pulse rate 24 cps) of the same molecule?
Answer: 87.52 μg/cm^2/24 hrs

Question: What about the Permeation (405 nm LED, pulse rate 80 cps) of the same molecule?
Answer: 20.82 μg/cm^2/24 hrs

Question: And the “% Permeation (percent increase or decrease vs dark baseline, equation 1)” value (405 nm, 24 cps vs Dark)?
Answer: −18.73%

Question: And the “% Permeation (percent increase or decrease vs dark baseline, equation 1)” value (405 nm, 80 cps vs Dark)?
Answer: 14.65%

Question: What about the “% Permeation (percent increase or decrease vs dark baseline, equation 1)” value (450 + TiO2, 24 cps vs Dark-TiO2) of the same molecule?
Answer: 158.04%

Question: What about the “% Permeation (percent increase or decrease vs dark baseline, equation 1)” value (450 + TiO2, 80 cps vs Dark-TiO2) of the same molecule?
Answer: 45.45%

Question: What about the Permeation (450 + TiO2, pulse rate 24 cps) of the same molecule?
Answer: 173.89 μg/cm^2/24 hrs

Question: And the Permeation (450 + TiO2, pulse rate 80 cps)?
Answer: 29.73 μg/cm^2/24 hrs

Question: And the Permeation (450 nm LED, pulse rate 24 cps)?
Answer: 29.25 μg/cm^2/24 hrs

Question: What about the Permeation (450 nm LED, pulse rate 80 cps) of the same molecule?
Answer: 21.81 μg/cm^2/24 hrs

Question: And the “% Permeation (percent increase or decrease vs dark baseline, equation 1)” value (450 nm, 24 cps vs Dark)?
Answer: −72.84%

Question: What about the “% Permeation (percent increase or decrease vs dark baseline, equation 1)” value (450 nm, 80 cps vs Dark) of the same molecule?
Answer: 20.10%

Question: What about the “Permeation Dark” value (Dark control) of the same molecule?
Answer: 41.68 μg/0.64 cm^2/25 hrs

Question: And the Permeation (Dark control, 24 cps series)?
Answer: 107.69 μg/cm^2/24 hrs

Question: And the Permeation (Dark control, 80 cps series)?
Answer: 18.16 μg/cm^2/24 hrs

Question: And the Permeation (Dark-TiO2 control (2% TiO2), 24 cps series)?
Answer: 67.39 μg/cm^2/24 hrs

Question: What about the Permeation (Dark-TiO2 control (2% TiO2), 80 cps series) of the same molecule?
Answer: 20.44 μg/cm^2/24 hrs

Question: And the Permeation (Day (natural daylight, not pulsed), control of the 24 cps series)?
Answer: 37.31 μg/cm^2/24 hrs

Question: And the Permeation (Day (natural daylight, not pulsed), control of the 80 cps series)?
Answer: 20.89 μg/cm^2/24 hrs

Question: What about the “% Permeation (percent increase or decrease vs dark baseline, equation 1)” value (Day vs Dark, 24 cps series) of the same molecule?
Answer: −65.35%

Question: What about the “% Permeation (percent increase or decrease vs dark baseline, equation 1)” value (Day vs Dark, 80 cps series) of the same molecule?
Answer: 15.03%

Question: And the Permeation (Day-TiO2 (natural daylight, 2% TiO2, not pulsed), control of the 24 cps series)?
Answer: 46.85 μg/cm^2/24 hrs

Question: And the Permeation (Day-TiO2 (natural daylight, 2% TiO2, not pulsed), control of the 80 cps series)?
Answer: 18.64 μg/cm^2/24 hrs

Question: What about the “% Permeation (percent increase or decrease vs dark baseline, equation 1)” value (Day-TiO2 vs Dark-TiO2, 24 cps series) of the same molecule?
Answer: −30.48%

Question: And the “% Permeation (percent increase or decrease vs dark baseline, equation 1)” value (Day-TiO2 vs Dark-TiO2, 80 cps series)?
Answer: −8.81%

Question: What about the 405/1.7 (405 nm) of the same molecule?
Answer: 40.38

Question: What about the 405/9.7 (405 nm) of the same molecule?
Answer: 1.23

Question: And the 405/24 (405 nm)?
Answer: 0.00

Question: What about the Ctrl of the same molecule?
Answer: 0.00

Question: And the “Permeation Ctrl” value?
Answer: 0.00 μg/0.64 cm^2/25 hrs

Question: And the “Permeation Ctrl-TiO2” value?
Answer: 0.00 μg/0.64 cm^2/25 hrs

Question: With `CC[C@H](C)[C@H](NC(=O)[C@H](Cc1ccc(O)cc1)NC(=O)[C@@H](NC(=O)[C@H](CCCNC(=N)N)NC(=O)[C@@H](N)CC(=O)O)C(C)C)C(=O)N[C@@H](Cc1cnc[nH]1)C(=O)N1CCC[C@H]1C(=O)N[C@@H](Cc1ccccc1)C(=O)O` [Compound 15] as the molecule, how does the “Permeation Dark” value (Dark control) read?
Answer: 42.80 μg/0.64 cm^2/25 hrs

Question: And the 405/1.7 (405 nm)?
Answer: 19.99

Question: What about the 405/9.7 (405 nm) of the same molecule?
Answer: 73.19

Question: And the 405/24 (405 nm)?
Answer: 3.87

Question: And the Ctrl?
Answer: 0.00

Question: What about the “Permeation Ctrl” value of the same molecule?
Answer: 0.00 μg/0.64 cm^2/25 hrs

Question: And the “Permeation Ctrl-TiO2” value?
Answer: 0.00 μg/0.64 cm^2/25 hrs
